# Tested on: 817829-284-R-J1-PDC complex spheroids, viability
# Assay: Anticancer human tumor 817829-284-R-J1-PDC patient-derived colon adenocarcinoma cell line growth inhibition [GQUAD]
# Conditions: for IC50: curve of first compound; for viability, T/C: stronger effect = lower value
# Excerpt: DNA G-quadruplex Stabilizer Agents in Combinations in Complex Spheroids
# A high-throughput screen of multi-cell type tumor spheroids was designed to identify active combinations of DNA G-quadruplex stabilizer agents and targeted small molecules. Complex spheroids include a stromal component modeled by human endothelial cells (HUVEC) and fibroblasts modeled by human mesenchymal stem cells (MSCs). The concentration ranges selected for each drug and investigational agent were based upon clinically achievable concentrations if the clinical Cmax of the agent was known.
# Compounds. The drugs and investigational agents: pidnarulex (CX-5461; NSC782164), APTO-253 (NSC789042), BRACO-19 (NSC847499), peposertib (NSC802822), ceralasertib (NSC780249), elimusertib (NSC800525), camonsertib (NSC841442), AZD-1390 (NSC803789), olaparib (NSC753686), talazoparib (NSC767125), ART-558 (NSC835418), sotorasib (NSC818433), MRTX-1133 (NSC836407), SN-38 (NSC673596), topotecan (NSC609699), etoposide (NSC141540), doxorubicin (NSC123127), gemcitabine (NSC613327), 5-fluorouracil (NSC19893), paclitaxel (NSC125973), vemurafenib (NSC761431), panobinostat (NSC761190), R-306465 (JNJ-16241199; NSC773264), adavosertib (NSC754352), TP-3654 (NSC805149), carboplatin (NSC241240), KSQ-4279 (NSC840948), and staurosporine (NSC755774) were obtained from the National Cancer Institute (NCI) Developmental Therapeutics Program Chemical Repository (34). The FDA-approved anticancer drug set is available from the NCI Developmental Therapeutics Program. […] The stock solutions were prepared in dimethyl sulfoxide (DMSO, Sigma-Aldrich, St. Louis, MO, cat. D2650) at 800-fold the tested concentration and stored at -70 degrees C prior to their use. All drugs and investigational agents were tested over a range starting from a high concentration at or near the clinical Cmax and decreasing in half-log increments. If the clinical Cmax for an agent had not been determined, the highest concentration tested was 10 microM.
# 2.3 Cell Culture. All cells were maintained in an incubator at 37 degrees C and 5% CO2 with 95% humidity. The PDC lines were cultured according to standard operating procedures established by the NCI PDMR. All PDCs were thawed and cultured in Matrigel-coated flasks prepared with a working solution of 1X Ham's F-12 nutrient mix, without supplementation (Invitrogen, cat. 11765054), 100 U/mL penicillin-streptomycin (Invitrogen, cat. 15140122), and 2.5% Matrigel (Corning Inc., cat. 354248) for the first three passages. The 857933-349-R-J2-PDC line was cultured in 6C/Colon 1B media, which includes advanced DMEM/F-12 (Thermo Fisher Scientific, cat. 12634028), 10 mM HEPES (Thermo Fisher Scientific, cat. 15630080), 1X GlutaMAX supplement (Thermo Fisher Scientific, cat. 35050061), 0.1 mg/mL primocin (InvivoGen, cat. ant-pm-2), 10% defined fetal bovine serum, heat inactivated (HyClone Laboratories Inc., cat. SH30070.03HI), 50% L-WRN conditioned media (ATCC, cat. CRL-3276), 1.25 mM N-Acetyl-L-cysteine (Sigma-Aldrich, cat. A9165), 10 mM nicotinamide (Sigma-Aldrich, cat. N0636), 1X B-27 supplement (Thermo Fisher Scientific, cat. 17504044), 1X N-2 supplement (Thermo Fisher Scientific, cat. 17502048), 10 microM Y-27632 dihydrochloride (Tocris Bioscience, cat. 1254), and 50 ng/mL human EGF recombinant protein (Thermo Fisher Scientific, cat. PHG0311). The 485176-168-R4-J1-PDC line was cultured in Panc media, which includes all 6C/Colon 1B media components plus 100 ng/mL human FGF-10 (Thermo Fisher Scientific, cat. 100-26), 500 nM SB-431542 (Selleckchem, cat. S1067), and gastrin (Tocris, cat. 3006).
# […]
# [1] = second compound 0.0316 µM, first compound 0.0316 µM
# [2] = second compound 0.0316 µM, first compound 0.1 µM
# [3] = second compound 0.0316 µM, first compound 0.316 µM
# [4] = second compound 0.0316 µM, first compound 1 µM
# [5] = second compound 0.0316 µM, first compound 3.16 µM
# [6] = second compound 0.0316 µM, first compound 10 µM
# [7] = second compound 0.1 µM, first compound 0.0316 µM
# [8] = second compound 0.1 µM, first compound 0.1 µM
# [9] = second compound 0.1 µM, first compound 0.316 µM
# [10] = second compound 0.1 µM, first compound 1 µM
# [11] = second compound 0.1 µM, first compound 3.16 µM
# [12] = second compound 0.1 µM, first compound 10 µM
# [13] = second compound 0.316 µM, first compound 0.0316 µM
# [14] = second compound 0.316 µM, first compound 0.1 µM
# [15] = second compound 0.316 µM, first compound 0.316 µM
# [16] = second compound 0.316 µM, first compound 1 µM
# [17] = second compound 0.316 µM, first compound 3.16 µM
# [18] = second compound 0.316 µM, first compound 10 µM
# [19] = second compound 1 µM, first compound 0.0316 µM
# [20] = second compound 1 µM, first compound 0.1 µM
# [21] = second compound 1 µM, first compound 0.316 µM
# [22] = second compound 1 µM, first compound 1 µM
# [23] = second compound 1 µM, first compound 3.16 µM
# [24] = second compound 1 µM, first compound 10 µM
# [25] = second compound 3.16 µM, first compound 0.0316 µM
# [26] = second compound 3.16 µM, first compound 0.1 µM
# [27] = second compound 3.16 µM, first compound 0.316 µM
# [28] = second compound 3.16 µM, first compound 1 µM
# [29] = second compound 3.16 µM, first compound 3.16 µM
# [30] = second compound 3.16 µM, first compound 10 µM
# [31] = second compound 10 µM, first compound 0.0316 µM
# [32] = second compound 10 µM, first compound 0.1 µM
# [33] = second compound 10 µM, first compound 0.316 µM
# [34] = second compound 10 µM, first compound 1 µM
# [35] = second compound 10 µM, first compound 3.16 µM
# [36] = second compound 10 µM, first compound 10 µM
# 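Also: spheroids exposed to agents for 7 days before readout.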
# 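For viability, T/C in this document: percent viability relative to DMSO vehicle control taken as 100%.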
smiles,measurement,setting,value
C#Cc1c(F)ccc2cc(O)cc(-c3ncc4c(N5CC6CCC(C5)N6)nc(OCC56CCCN5CC(F)C6)nc4c3F)c12 (centres undefined) + Cc1cnc(CNC(=O)c2c(=O)c3ccc(N4CCCN(C)CC4)nc3n3c2sc2ccccc23)cn1,IC50,second compound 0.0316 µM,> 10000 nM
same,IC50,second compound 0.1 µM,< 31.6 nM
same,IC50,second compound 0.316 µM,< 31.6 nM
same,IC50,second compound 1 µM,< 31.6 nM
same,IC50,second compound 3.16 µM,< 31.6 nM
same,IC50,second compound 10 µM,< 31.6 nM
same,"viability, T/C",[1],82.9%
same,"viability, T/C",[2],72.5%
same,"viability, T/C",[3],84.7%
same,"viability, T/C",[4],61%
same,"viability, T/C",[5],91.2%
same,"viability, T/C",[6],89.8%
same,"viability, T/C",[7],30.7%
same,"viability, T/C",[8],35.5%
same,"viability, T/C",[9],32.8%
same,"viability, T/C",[10],36.2%
same,"viability, T/C",[11],33.9%
same,"viability, T/C",[12],35.9%
same,"viability, T/C",[13],22.9%
same,"viability, T/C",[14],28.6%
same,"viability, T/C",[15],24.8%
same,"viability, T/C",[16],24.1%
same,"viability, T/C",[17],29.4%
same,"viability, T/C",[18],27%
same,"viability, T/C",[19],17.9%
same,"viability, T/C",[20],23.4%
same,"viability, T/C",[21],20.6%
same,"viability, T/C",[22],21.8%
same,"viability, T/C",[23],23%
same,"viability, T/C",[24],19.8%
same,"viability, T/C",[25],17%
same,"viability, T/C",[26],20.1%
same,"viability, T/C",[27],18.8%
same,"viability, T/C",[28],17.3%
same,"viability, T/C",[29],22.7%
same,"viability, T/C",[30],20.5%
same,"viability, T/C",[31],0.13%
same,"viability, T/C",[32],0.18%
same,"viability, T/C",[33],0.19%
same,"viability, T/C",[34],0.15%
same,"viability, T/C",[35],0.18%
same,"viability, T/C",[36],0.16%
CC(=O)O[C@H]1C(=O)[C@@]2(C)[C@H]([C@H](OC(=O)c3ccccc3)[C@]3(O)C[C@H](OC(=O)[C@H](O)[C@@H](NC(=O)c4ccccc4)c4ccccc4)C(C)=C1C3(C)C)[C@]1(OC(C)=O)CO[C@@H]1C[C@@H]2O + Cc1cnc(CNC(=O)c2c(=O)c3ccc(N4CCCN(C)CC4)nc3n3c2sc2ccccc23)cn1,IC50,second compound 0.0316 µM,< 31.6 nM
same,IC50,second compound 0.1 µM,< 31.6 nM
same,IC50,second compound 0.316 µM,< 31.6 nM
same,IC50,second compound 1 µM,< 31.6 nM
same,IC50,second compound 3.16 µM,< 31.6 nM
same,IC50,second compound 10 µM,< 31.6 nM
same,"viability, T/C",[1],13.8%
same,"viability, T/C",[2],7.95%
same,"viability, T/C",[3],6.83%
same,"viability, T/C",[4],5.58%
same,"viability, T/C",[5],6.63%
same,"viability, T/C",[6],7.13%
same,"viability, T/C",[7],16.6%
same,"viability, T/C",[8],15.9%
same,"viability, T/C",[9],13.2%
same,"viability, T/C",[10],13.6%
same,"viability, T/C",[11],14.1%
same,"viability, T/C",[12],14.8%
same,"viability, T/C",[13],17.9%
same,"viability, T/C",[14],20.6%
same,"viability, T/C",[15],19.2%
same,"viability, T/C",[16],19.6%
same,"viability, T/C",[17],16%
same,"viability, T/C",[18],20.2%
same,"viability, T/C",[19],15.3%
same,"viability, T/C",[20],20.4%
same,"viability, T/C",[21],17.4%
same,"viability, T/C",[22],17%
same,"viability, T/C",[23],17.5%
same,"viability, T/C",[24],16.5%
same,"viability, T/C",[25],17.3%
same,"viability, T/C",[26],16.9%
same,"viability, T/C",[27],14.7%
same,"viability, T/C",[28],14.4%
same,"viability, T/C",[29],12.7%
same,"viability, T/C",[30],13.1%
same,"viability, T/C",[31],0.11%
same,"viability, T/C",[32],0.16%
same,"viability, T/C",[33],0.15%
same,"viability, T/C",[34],0.14%
same,"viability, T/C",[35],0.15%
same,"viability, T/C",[36],0.15%
